# Measured values reported in patent US6680318B2, “Piperazinomethylbenzamides as delta-opioid receptor agonists” (AstraZeneca AB, priority 1999, dated 2004).
# pEC50, pIC50: −log10 of the molar value. Structures can show the parent of a compound that is named as a salt. Where two headings read alike, the source gives them in different places.
# Experiments:
# HDelta = target: T1, HDelta (Homo sapiens, UniProt P41143); test: HDelta agonist activity (EC50, % EMAX); format: biochemical
# T1 construct: expressed in transfected cells; host or cells: human 293S cells (geneticin-selected)
# Rat Brain = Rat Brain (Rattus norvegicus, UniProt P33533); test: Rat Brain agonist activity (EC50, % EMAX); format: biochemical
# [1] = target: T2, cloned human δ receptors (HDelta) (Homo sapiens, UniProt P41143); test: Binding assay on membranes of 293S cells expressing cloned human δ receptor (HDelta)
# T2 construct: expressed in transfected cells; host or cells: human 293S cells (geneticin-selected)
# Mouse Brain = target: T3, Mouse Brain (Mus musculus, UniProt P32300); test: Mouse Brain agonist activity (EC50, % EMAX); format: biochemical
# T3 construct: from tissue; host or cells: mouse brain
# [2] = MLM metabolic stability (% remaining); format: in vitro ADME, mouse
# [3] = RLM metabolic stability (% remaining); format: in vitro ADME, rat
# [4] = 10000 (concentration, unit not given)
# [5] = 100000 (concentration, unit not given)
# T1 sequence (P41143 whole entry): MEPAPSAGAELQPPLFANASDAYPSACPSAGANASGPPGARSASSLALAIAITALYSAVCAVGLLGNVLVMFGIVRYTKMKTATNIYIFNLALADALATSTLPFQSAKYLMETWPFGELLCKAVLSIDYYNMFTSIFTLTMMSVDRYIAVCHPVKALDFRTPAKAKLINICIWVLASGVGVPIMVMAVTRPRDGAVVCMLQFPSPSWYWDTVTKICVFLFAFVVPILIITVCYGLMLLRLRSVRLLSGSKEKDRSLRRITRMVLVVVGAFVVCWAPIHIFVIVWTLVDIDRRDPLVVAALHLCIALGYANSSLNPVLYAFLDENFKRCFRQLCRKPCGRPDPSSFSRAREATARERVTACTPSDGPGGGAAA
# Sequence of Rat Brain (P33533 whole entry): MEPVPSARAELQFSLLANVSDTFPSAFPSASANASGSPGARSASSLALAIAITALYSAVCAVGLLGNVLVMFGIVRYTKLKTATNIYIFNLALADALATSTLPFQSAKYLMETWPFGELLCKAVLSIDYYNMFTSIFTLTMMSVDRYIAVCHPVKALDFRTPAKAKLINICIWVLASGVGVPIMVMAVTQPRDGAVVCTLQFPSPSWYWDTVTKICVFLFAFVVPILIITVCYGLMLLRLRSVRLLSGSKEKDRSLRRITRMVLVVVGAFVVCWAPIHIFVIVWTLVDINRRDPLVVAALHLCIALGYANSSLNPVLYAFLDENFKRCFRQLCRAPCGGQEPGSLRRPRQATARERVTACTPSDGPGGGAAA
# T3 sequence (P32300 whole entry): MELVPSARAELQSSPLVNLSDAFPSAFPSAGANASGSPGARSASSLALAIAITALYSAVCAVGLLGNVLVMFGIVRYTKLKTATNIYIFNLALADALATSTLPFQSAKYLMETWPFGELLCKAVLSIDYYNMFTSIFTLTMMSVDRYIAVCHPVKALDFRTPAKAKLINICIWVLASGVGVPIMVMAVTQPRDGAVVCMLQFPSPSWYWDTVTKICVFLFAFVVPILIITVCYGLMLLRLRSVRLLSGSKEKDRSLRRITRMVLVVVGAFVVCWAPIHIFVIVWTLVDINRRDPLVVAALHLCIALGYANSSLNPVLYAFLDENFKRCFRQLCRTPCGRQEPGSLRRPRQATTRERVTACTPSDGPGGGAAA
# T2 sequence (P41143 whole entry): as the sequence (P41143 whole entry) above
Structure (SMILES),Emax (HDelta) [%],pEC50 (HDelta; read-out: HDelta EC50),Emax (Rat Brain) [%],pIC50 [1],pEC50 (HDelta),pEC50 (Mouse Brain),Emax (Mouse Brain) [%],"MLM 10000 % rem. [2, 4] [%]","MLM 100000 % rem. [2, 5] [%]","RLM 10000 % rem. [3, 4] [%]","RLM 100000 % rem. [3, 5] [%]"
"CCN(CC)C(=O)c1ccc(C(c2cccc3c2OC(C)(C)C3)N2CCN(Cc3cccnc3)CC2)cc1 (stereo not shown) [Example 3, 4-{(2,2-dimethyl-2,3-dihydro-1-benzofuran-7-yl)[4-(3-pyridinylmethyl)-1-piperazinyl]methyl}-N,N-diethylbenzamide Dihydrochloride]",103,7.71,93,,,,,,,,
"CCN(CC)C(=O)c1ccc(C(c2cccc3c2OC(C)(C)C3)N2CCN(Cc3ccccn3)CC2)cc1 (stereo not shown) [Example 4, 4-{(2,2-dimethyl-2,3-dihydro-1-benzofuran-7-yl)[4-(2-pyridinylmethyl)-1-piperazinyl]methyl}-N,N-diethylbenzamide Ditrifuroacetae]",104,,118,8.49,8.13,6.84,118,44.5,93,42.5,90.5
